Measured values: BigSolDB 2.1

Conditions: in water

Row | Compound | solubility (mole fraction) (279.15 K) | solubility (mole fraction) (281.15 K) | solubility (mole fraction) (284.15 K) | solubility (mole fraction) (289.15 K) | solubility (mole fraction) (291.15 K) | solubility (mole fraction) (293.15 K) | solubility (mole fraction) (298.15 K) | solubility (mole fraction) (302.15 K) | solubility (mole fraction) (304.15 K) | solubility (mole fraction) (307.15 K) | solubility (mole fraction) (310.15 K) | solubility (mole fraction) (316.15 K) | solubility (mole fraction) (317.15 K) | solubility (mole fraction) (318.15 K) | solubility (mole fraction) (323.15 K) | solubility (mole fraction) (327.65 K) | solubility (mole fraction) (336.15 K) | solubility (mole fraction) (342.15 K) | solubility (mole fraction) (283.65 K) | solubility (mole fraction) (327.15 K) | other results
1 | O=C(O)CCCC(=O)O | 0.0734 | 0.0784 | 0.085 | 0.118 | 0.129 | 0.139 | 0.16 | 0.189 | 0.2 | 0.216 | 0.236 | 0.281 | 0.287 | 0.289 | 0.327 | 0.355 | 0.478 | 0.537 |  |  | solubility (mole fraction) (286.15 K): 0.101; solubility (mole fraction) (312.15 K): 0.249; solubility (mole fraction) (320.55 K): 0.308; solubility (mole fraction) (329.15 K): 0.398; solubility (mole fraction) (332.15 K): 0.419; solubility (mole fraction) (334.25 K): 0.424
2 | O=C(O)c1ccco1 | 0.00411 |  | 0.00462 | 0.00483 |  |  | 0.00796 | 0.0099 |  | 0.0125 |  |  | 0.0257 |  | 0.0513 | 0.074 | 0.199 |  | 0.00431 | 0.0722 | solubility (mole fraction) (280.15 K): 0.00414; solubility (mole fraction) (285.15 K): 0.00471; solubility (mole fraction) (294.15 K): 0.00633; solubility (mole fraction) (301.15 K): 0.00886; solubility (mole fraction) (309.15 K): 0.013; solubility (mole fraction) (311.15 K): 0.0154; solubility (mole fraction) (315.15 K): 0.0231; solubility (mole fraction) (319.8 K): 0.031; solubility (mole fraction) (325.15 K): 0.0664; solubility (mole fraction) (328.15 K): 0.0907; solubility (mole fraction) (330.65 K): 0.128; solubility (mole fraction) (333.2 K): 0.144; solubility (mole fraction) (334.55 K): 0.144; solubility (mole fraction) (341.15 K): 0.262
3 | O=C(O)c1ccccc1O |  |  |  |  |  |  | 0.000333 |  |  | 0.000441 |  |  | 0.000572 | 0.000677 | 0.000742 |  |  |  |  | 0.000934 | solubility (mole fraction) (283.15 K): 0.0002; solubility (mole fraction) (320.15 K): 0.000672; solubility (mole fraction) (324.15 K): 0.000785; solubility (mole fraction) (325.15 K): 0.000847; solubility (mole fraction) (328.15 K): 0.000964; solubility (mole fraction) (330.65 K): 0.00111; solubility (mole fraction) (334.65 K): 0.00131; solubility (mole fraction) (339.15 K): 0.00149
4 | O=C(O)c1ccccc1C(=O)O |  |  |  |  |  |  | 0.000761 |  |  | 0.00107 |  |  | 0.00164 | 0.00164 | 0.00223 |  |  |  | 0.000284 | 0.00248 | solubility (mole fraction) (296.15 K): 0.000709; solubility (mole fraction) (302.65 K): 0.000935; solubility (mole fraction) (309.15 K): 0.00119; solubility (mole fraction) (311.15 K): 0.00126; solubility (mole fraction) (315.15 K): 0.00151; solubility (mole fraction) (319.15 K): 0.00181; solubility (mole fraction) (320.15 K): 0.00205; solubility (mole fraction) (334.15 K): 0.00323; solubility (mole fraction) (338.15 K): 0.004
5 | O=C(O)CCCCCC(=O)O | 0.00204 | 0.00211 | 0.00245 | 0.00417 | 0.00474 | 0.00568 | 0.00756 | 0.00906 | 0.00994 | 0.0113 | 0.0132 | 0.0364 |  | 0.0464 | 0.0776 |  |  | 0.328 |  |  | solubility (mole fraction) (297.15 K): 0.00738; solubility (mole fraction) (313.15 K): 0.0186; solubility (mole fraction) (320.65 K): 0.0584; solubility (mole fraction) (327.98 K): 0.14; solubility (mole fraction) (333.15 K): 0.189; solubility (mole fraction) (337.65 K): 0.261
